Laboratory results: patent US20080207572A1, “Use of Dual C-Kit/Fgfr3 Inhibitors for Treating Multiple Myeloma” (AB Science, priority 2005, published 2008)

Columns and labels:
Type in all cases: cell-based
[1] = test system: human mast cell line expressing the JMΔ27 mutated c-kit; assay: Apoptosis induction in mast cell line; details: 0.1 μM, after 48 hours; control cells 10% apoptotic
Procedure: (§1) In this experiment, after 48 hours, 0.1 μM AB1010 induced apoptosis of approximately 50% versus control cells in which 10% of cells were apoptotic. In addition, a separate cell line (Ba/F3-derived) expressing JMΔ27 was tested and apoptosis was induced to a level of approximately 85%.

[2] = test system: cell line (Ba/F3-derived) expressing JMΔ27; assay: Apoptosis induction in Ba/F3-derived cell line
Procedure: as §1

[3] = test system: t(4; 14) FGFR3+ human plasma cell line LP1; assay: FGF-enhanced proliferation (3H-Thymidine uptake); details: in the presence of FGF; FIG. 2
Source text: In the presence of FGF, the proliferation of the t(4; 14) FGFR3+ human plasma cell line is enhanced, as measured by 3H-Thymidine uptake.

## Cc1ccc(NC(=O)c2ccc(CN3CCN(C)CC3)cc2)cc1Nc1nc(-c2cccnc2)cs1 [AB1010]
[1]
  apoptosis induced: approximately 50%
[2]
  apoptosis induced: approximately 85%
[3]
  inhibition of FGF-enhanced proliferation: inhibit the FGF-enhanced proliferation
